In US6534515B2, “20,21-dinor-eburnamenines” (Aventis Pharma S.A., priority 1989, dated 2003):

Assays:
[1] = system: adrenergic alpha2 receptors; assay: Affinity for the adrenergic alpha 2 receptors (3H rauwolscine displacement, rat cortex membranes); type: binding; conditions: rat brain cortex membranes, 3H rauwolscine 0.15 nM, 45 minutes at 25° C.; CD/CX = concentrations of phentolamine/product inhibiting 50% of specific fixation
Protocol: 1) Affinity for the Adrenergic Alpha 2 Receptors:
10 cortices removed from the brains of male rats weighing an average of 150 g were homogenized in 90 ml of 0.32 M sucrose. After centrifuging 1000 g of the homogenized mixture, for 10 minutes at 0° C.+4° C., the deposit was suspended in 240 ml of 50 mM Tris HCl pH 7.7 buffer, and centrifuged at 30,000 g for 15 minutes at 0°+4° C. The new deposit was suspended in 480 ml of 50 mM NaKPO4 pH 7.4 buffer. Then, 2 ml of suspension were incubated for 45 minutes at 25° C. in the presence of ^3H rauwolscine at a concentration of 0.15 nM:
I) alone or II) with increasing concentrations of the product under test or, III) to determine the non-specific fixation with non-radioactive phentolamine at a concentration of 10^−5M.
The incubated suspensionis were filtered on Whatman GF/C and the filters were washed three times with 5 ml of NaKPO4 pH 7.4 buffer at 0° C. The ratioactivity of the filters was measured by liquid scintillation. The affinity of the product tested for the adrenergic alpha2 receptors was determined relative to phentolamine as reference product.
CD=concentration of phentolamine inhibiting 50% of the specific fixation of ^3H rauwolscine,
CX=concentration of the product under test inhibiting 50% of the specific fixation of ^3H rauwolscine.
The relative affinity was calculated by the relation: […]

[2] = system: male mice of CD1 CHARLES RIVER type; assay: Hypobaric anoxia survival time in mice; type: in vivo; conditions: intra-peritoneally 10 mg/kg, 60 minutes before the test, pressure drop of 630 mm Hg, relative to control animals
Protocol: Male mice of CD1 CHARLES RIVER type weighing 20 to 25 grams having gone without food for 6 hours were placed in a 2-liter chamber in which a pressure drop of 630 mm Hg was carried out according to the following kinetics:
The survival time was measured from the time TO and over a maximum time of 3 minutes and it was about 70 seconds for the control animals. The rectal temperature was measured immediately before the determination of the survival time. The products were administered intra-peritoneally at a dose of 10 mg/kg and in a volume of 10 ml/kg 60 minutes before the test and the control animals received the vehicle. The results were determined as a percentage of increase in the survival time relative to the control animals.

Compound	ARL (relative affinity, from CD and CX, relative to phentolamine as reference product) [1]	% increase in survival time [2] [%]
[16α, (±)]-14,15-dihydro-15-methylene-20,21-dinorburnamenine [Example 11]	343	–
[16α, (±)]-15-(1-propynyl)-20,21-dinoreburnamenine [Example 2]	367	–
CC1=Cn2c3c(c4ccccc42)CCN2CCCC1C32 (stereo not drawn) [Example 7, (3-α)-15-methyl-20,21-dinoreburnameinine]	980	–
[16α, (±)-20,21-dinoreburnamenin-15-methanol [Example 13]	346	11
Ethyl [16α, (±)]-20,21-dinoreburnamenine-15-acetate [Example 12]	942	–
[16α, (±)]-N,N-dimethyl-20,21dinoreburnamenin-15-methanamine [Example 14]	–	12
[16α, (±)]-15-methyl-20,21-dinoreburnamenine [Example 5]	456	34
